Numbering of substitutions follows the chain as printed. Residues, ends and D or L forms follow the SMILES beside them.
Legend:
CrkL SH2 domain [1] = molecular target: T1, CrkL SH2 domain (Homo sapiens, UniProt P46109); set-up: method as in earlier work; details: N.B. = non binding, cited from earlier work
Plcg2_N SH2 domain = Plcg2_N SH2 domain (Homo sapiens, UniProt P16885); set-up: method as in earlier work; details: N.B. = non binding; cited from earlier work
Crk SH2 domain [2] = molecular target: T2, Crk SH2 domain (Homo sapiens, UniProt P46108); set-up: method as in earlier work; details: N.B. = non binding; cited from earlier work
Vav1 SH2 domain = Vav1 SH2 domain (Homo sapiens, UniProt P15498); set-up: method as in earlier work; details: N.B. = non binding; cited from earlier work
Nck1 SH2 domain = Nck1 SH2 domain (Homo sapiens, UniProt P16333); set-up: method as in earlier work; details: N.B. = non binding; cited from earlier work
Gads SH2 domain [3] = assay: SPOT peptide array; assay type: binding; details: spot intensity as factor of array mean; GST-SH2 0.25 μM
Method in brief: (§1)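 Peptides were synthesized by SPOT on cellulose as 11-mers with the phosphotyrosine fifth, about 5 nmol each. GST–SH2 domain fusions were then incubated on the arrays and visualized via anti-GST and near-infrared secondary antibodies. Peptides binding GST alone above mean in two of three trials were flagged nonspecific.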

Crk SH2 domain [4] = molecular target: T2, Crk SH2 domain; assay: SPOT peptide array; assay type: binding; details: spot intensity as factor of array mean; GST-SH2 0.25 μM
Method in brief: as §1

Gads SH2 domain [5] = molecular target: Gads SH2 domain; set-up: method as in earlier work; details: SH2 protein microarray; N.B. = non binding; read-out: Protein Microarray (Macbeath) – KD; cited from earlier work
Src SH2 domain [6] = molecular target: T3, Src SH2 domain (Homo sapiens, UniProt P12931); set-up: method as in earlier work; details: SH2 protein microarray; N.B. = non binding; read-out: Protein Microarray (Macbeath) – KD; cited from earlier work
Grb2 SH2 domain [7] = molecular target: T4, Grb2 SH2 domain (Homo sapiens, UniProt P62993); assay: SPOT peptide array; assay type: binding; details: spot intensity as factor of array mean; GST-SH2 0.25 μM
Method in brief: as §1

Grb7 SH2 domain [8] = assay: SPOT peptide array; assay type: binding; details: spot intensity as factor of array mean; GST-SH2 0.25 μM
Method in brief: as §1

Abl2 SH2 domain [9] = molecular target: T5, Abl2 SH2 domain (Homo sapiens, UniProt P42684); assay: SPOT peptide array; assay type: binding; details: spot intensity as factor of array mean; GST-SH2 0.25 μM
T5 sequence (P42684 173-263 limits assumed): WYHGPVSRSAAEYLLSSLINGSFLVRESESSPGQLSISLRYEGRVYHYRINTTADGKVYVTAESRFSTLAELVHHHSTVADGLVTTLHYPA
Method in brief: as §1

Src SH2 domain [10] = molecular target: T3, Src SH2 domain; assay: SPOT peptide array; assay type: binding; details: spot intensity as factor of array mean; GST-SH2 0.25 μM
Method in brief: as §1

Grb7 SH2 domain [11] = molecular target: Grb7 SH2 domain; set-up: method as in earlier work; details: SH2 protein microarray; N.B. = non binding; read-out: Protein Microarray (Macbeath) – KD; cited from earlier work
Abl1 SH2 domain [12] = molecular target: T6, Abl1 SH2 domain (Homo sapiens, UniProt P00519); set-up: method as in earlier work; details: SH2 protein microarray; N.B. = non binding; read-out: Protein Microarray (Macbeath) – KD; cited from earlier work
T6 sequence (P00519 127-217 limits assumed): T5 sequence (P42684 173-263 limits assumed) with S9N, L18G, L35R, T53A, A54S, V58L, T61S, A62S, S67N, V84I

Grb2 SH2 domain [13] = molecular target: T4, Grb2 SH2 domain; set-up: method as in earlier work; details: SH2 protein microarray; N.B. = non binding; read-out: Protein Microarray (Macbeath) – KD; cited from earlier work
Abl2 SH2 domain [14] = molecular target: T5, Abl2 SH2 domain; set-up: method as in earlier work; details: SH2 protein microarray; N.B. = non binding; read-out: Protein Microarray (Macbeath) – KD; cited from earlier work
Rasa1_N SH2 domain = Rasa1_N SH2 domain (Homo sapiens, UniProt P20936); assay: SPOT peptide array; assay type: binding; details: spot intensity as factor of array mean; GST-SH2 0.25 μM
Yes SH2 domain [15] = molecular target: Yes SH2 domain; set-up: method as in earlier work; details: SH2 protein microarray; N.B. = non binding; read-out: Protein Microarray (Macbeath) – KD; cited from earlier work
Itk SH2 domain = Itk SH2 domain (Homo sapiens, UniProt Q08881); assay: SPOT peptide array; assay type: binding; details: spot intensity as factor of array mean; GST-SH2 0.25 μM
Abl1 SH2 domain [16] = molecular target: T6, Abl1 SH2 domain; assay: SPOT peptide array; assay type: binding; details: spot intensity as factor of array mean; GST-SH2 0.25 μM
Method in brief: as §1

CrkL SH2 domain [17] = molecular target: T1, CrkL SH2 domain; assay: SPOT peptide array; assay type: binding; details: spot intensity as factor of array mean; GST-SH2 0.25 μM
Method in brief: as §1

Yes SH2 domain [18] = assay: SPOT peptide array; assay type: binding; details: spot intensity as factor of array mean; GST-SH2 0.25 μM
Method in brief: as §1

T1 sequence (P46109 14-102 limits assumed): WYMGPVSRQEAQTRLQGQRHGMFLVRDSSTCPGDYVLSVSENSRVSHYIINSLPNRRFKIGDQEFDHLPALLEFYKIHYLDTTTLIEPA
T4 sequence (P62993 60-152 limits assumed): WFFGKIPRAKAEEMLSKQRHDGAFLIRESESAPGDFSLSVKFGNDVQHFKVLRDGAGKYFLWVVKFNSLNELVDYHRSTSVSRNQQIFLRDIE
T2 sequence (P46108 13-118 limits assumed): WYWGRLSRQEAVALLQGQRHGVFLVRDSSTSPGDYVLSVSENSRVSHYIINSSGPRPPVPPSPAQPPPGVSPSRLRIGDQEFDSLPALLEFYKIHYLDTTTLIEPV
Plcg2_N SH2 domain, sequence (P16885 532-635 limits assumed): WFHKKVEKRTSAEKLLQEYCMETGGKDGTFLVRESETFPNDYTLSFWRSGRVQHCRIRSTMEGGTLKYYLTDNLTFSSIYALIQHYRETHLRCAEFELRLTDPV
Rasa1_N SH2 domain, sequence (P20936 181-272 limits assumed): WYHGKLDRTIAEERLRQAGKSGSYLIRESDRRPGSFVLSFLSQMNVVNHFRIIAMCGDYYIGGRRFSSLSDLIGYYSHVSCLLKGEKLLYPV
Itk SH2 domain, sequence (Q08881 239-338 limits assumed): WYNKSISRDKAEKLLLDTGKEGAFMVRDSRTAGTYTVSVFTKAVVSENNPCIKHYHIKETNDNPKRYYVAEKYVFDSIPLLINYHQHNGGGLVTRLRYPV
Vav1 SH2 domain, sequence (P15498 671-765 limits assumed): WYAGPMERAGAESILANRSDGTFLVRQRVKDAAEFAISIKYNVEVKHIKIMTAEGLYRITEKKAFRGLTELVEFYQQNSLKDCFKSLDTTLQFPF

Molecule: CSCC[C@H](NC(=O)[C@@H]1CCCN1C(=O)[C@@H](N)[C@@H](C)O)C(=O)N[C@@H](CC(C)C)C(=O)N[C@@H](C)C(=O)NCC(=O)N[C@H](C(=O)N[C@@H](CO)C(=O)N[C@@H](CCC(=O)O)C(=O)N[C@@H](Cc1ccc(OP(=O)(O)O)cc1)C(=O)N[C@@H](CCC(=O)O)C(=O)N[C@@H](CC(C)C)C(=O)N1CCC[C@H]1C(=O)N[C@@H](CCC(=O)O)C(=O)N[C@@H](CC(=O)O)C(=O)N1CCC[C@H]1C(=O)N[C@@H](CCCNC(=N)N)C(=O)N[C@@H](CC(=O)O)C(=O)O)C(C)C (HELM PEPTIDE1{T.P.M.L.A.G.V.S.E.[O=C([C@H](Cc1ccc(OP(=O)(O)O)cc1)N[*:1])[*:2]].E.L.P.E.D.P.R.D}$$$$V2.0)
- Protein Microarray (Macbeath) – KD (CrkL SH2 domain [1]): N.B.
- Protein Microarray (Macbeath) – KD (Plcg2_N SH2 domain): N.B.
- Protein Microarray (Macbeath) – KD (Crk SH2 domain [2]): N.B.
- Protein Microarray (Macbeath) – KD (Vav1 SH2 domain): N.B.
- Protein Microarray (Macbeath) – KD (Nck1 SH2 domain): N.B.

Molecule: ARDIHHIDYpYKKTTNGRD
- Peptide array intensity (X mean) (Gads SH2 domain [3]): <2x X Mean
- Peptide array intensity (X mean) (Crk SH2 domain [4]): <2x X Mean
- Kd (Gads SH2 domain [5]): 1010 nM

Molecule: EIFTLGGSPpYPGVPVEED
- Kd (Src SH2 domain [6]): 1790 nM
- Peptide array intensity (X mean) (Grb2 SH2 domain [7]): <2x X Mean
- Peptide array intensity (X mean) (Grb7 SH2 domain [8]): <2x X Mean
- Peptide array intensity (X mean) (Abl2 SH2 domain [9]): <2x X Mean
- Peptide array intensity (X mean) (Src SH2 domain [10]): <2x X Mean
- Kd (Grb7 SH2 domain [11]): 650 nM

Molecule: QARRPPGLEpYCYNPSHND* (QARRPPGLEYCYNPSHND) [FGFR1 Y583 phosphopeptide; Cys replaced with Ala or Ser on peptide arrays]
- Kd (CrkL SH2 domain [1]; SH2 protein microarray, read-out: Protein Microarray (Macbeath) – KD): 1550 nM
- Kd (Abl1 SH2 domain [12]): 1800 nM
- Kd (Grb2 SH2 domain [13]): 1620 nM
- Kd (Abl2 SH2 domain [14]): 340 nM

Molecule: QARRPPGLEpYCYNPSHND* [FGFR1 Y583 phosphopeptide; Cys replaced with Ala or Ser on peptide arrays]
- Peptide array intensity (X mean) (Rasa1_N SH2 domain): <2x X Mean
- Kd (Yes SH2 domain [15]): 1550 nM
- Peptide array intensity (X mean) (Itk SH2 domain): <2x X Mean
- Peptide array intensity (X mean) (Abl1 SH2 domain [16]): >3x X Mean
- Peptide array intensity (X mean) (Grb2 SH2 domain [7]): <2x X Mean
- Peptide array intensity (X mean) (CrkL SH2 domain [17]): <2x X Mean
- Peptide array intensity (X mean) (Grb7 SH2 domain [8]): >3x X Mean
- Peptide array intensity (X mean) (Abl2 SH2 domain [9]): <2x X Mean
- Peptide array intensity (X mean) (Yes SH2 domain [18]): <2x X Mean
- Kd (Grb7 SH2 domain [11]): 1000 nM

From article PMC3514216, “SRC Homology 2 Domain Binding Sites in Insulin, IGF-1 and FGF receptor mediated signaling networks reveal an extensive potential interactome” (Cell Communication and Signaling : CCS, 2012)
